From paper PMC11277489, “Novel Piperazine Derivatives of Vindoline as Anticancer Agents” (International Journal of Molecular Sciences, 2024)
Like-named read-outs stand apart in the source and are kept apart here.

Experiments:
Type in all cases: cell-based
CCRF-CEM = assay: NCI60 five-dose screen, Leukemia; conditions: Homo sapiens, Leukemia, five-dose screen, read-out: GI50
MOLT-4 = assay: NCI60 five-dose screen, Leukemia; conditions: Homo sapiens; MOLT-4, Leukemia; five-dose screen; read-out: GI50
RPMI-8226 = assay: NCI60 five-dose screen, Leukemia; conditions: Homo sapiens; RPMI-8226, Leukemia; five-dose screen; read-out: GI50
SR = assay: NCI60 five-dose screen, Leukemia; conditions: Homo sapiens, Leukemia, five-dose screen, read-out: GI50
A549/ATCC = assay: NCI60 five-dose screen, Non-small Cell Lung Cancer; conditions: Homo sapiens; A549/ATCC, Non-small Cell Lung Cancer; five-dose screen; read-out: GI50
NCI-H226 = assay: NCI60 five-dose screen, Non-small Cell Lung Cancer; conditions: Homo sapiens; NCI-H226, Non-small Cell Lung Cancer; five-dose screen; read-out: GI50
NCI-H23 = assay: NCI60 five-dose screen, Non-small Cell Lung Cancer; conditions: Homo sapiens; NCI-H23, Non-small Cell Lung Cancer; five-dose screen; read-out: GI50
NCI-H322M = assay: NCI60 five-dose screen, Non-small Cell Lung Cancer; conditions: Homo sapiens, Non-small Cell Lung Cancer, five-dose screen, read-out: GI50
NCI-H522 = assay: NCI60 five-dose screen, Non-small Cell Lung Cancer; conditions: Homo sapiens; NCI-H522, Non-small Cell Lung Cancer; five-dose screen; read-out: GI50
COLO 205 = assay: NCI60 five-dose screen, Colon Cancer; conditions: Homo sapiens; COLO 205, Colon Cancer; five-dose screen; read-out: GI50
HCC-2998 = assay: NCI60 five-dose screen, Colon Cancer; conditions: Homo sapiens; HCC-2998, Colon Cancer; five-dose screen; read-out: GI50
HCT-15 = assay: NCI60 five-dose screen, Colon Cancer; conditions: Homo sapiens; HCT-15, Colon Cancer; five-dose screen; read-out: GI50
KM12 = assay: NCI60 five-dose screen, Colon Cancer; conditions: Homo sapiens; KM12, Colon Cancer; five-dose screen; read-out: GI50
SW-620 = assay: NCI60 five-dose screen, Colon Cancer; conditions: Homo sapiens; SW-620, Colon Cancer; five-dose screen; read-out: GI50
SF-295 = assay: NCI60 five-dose screen, CNS Cancer; conditions: Homo sapiens; SF-295, CNS Cancer; five-dose screen; read-out: GI50
SNB-75 = assay: NCI60 five-dose screen, CNS Cancer; conditions: Homo sapiens; SNB-75, CNS Cancer; five-dose screen; read-out: GI50
U251 = assay: NCI60 five-dose screen, CNS Cancer; conditions: Homo sapiens, U-251; U251, CNS Cancer; five-dose screen; read-out: GI50
MALME-3M = assay: NCI60 five-dose screen, Melanoma; conditions: Homo sapiens; MALME-3M, Melanoma; five-dose screen; read-out: GI50
M14 = assay: NCI60 five-dose screen, Melanoma; conditions: Homo sapiens; M14, Melanoma; five-dose screen; read-out: GI50
SK-MEL-2 = assay: NCI60 five-dose screen, Melanoma; conditions: Homo sapiens; SK-MEL-2, Melanoma; five-dose screen; read-out: GI50
SK-MEL-28 = assay: NCI60 five-dose screen, Melanoma; conditions: Homo sapiens; SK-MEL-28, Melanoma; five-dose screen; read-out: GI50
UACC-257 = assay: NCI60 five-dose screen, Melanoma; conditions: Homo sapiens; UACC-257, Melanoma; five-dose screen; read-out: GI50
OVCAR-3 = assay: NCI60 five-dose screen, Ovarian Cancer; conditions: Homo sapiens; OVCAR-3, Ovarian Cancer; five-dose screen; read-out: GI50
OVCAR-8 = assay: NCI60 five-dose screen, Ovarian Cancer; conditions: Homo sapiens; OVCAR-8, Ovarian Cancer; five-dose screen; read-out: GI50
SK-OV-3 = assay: NCI60 five-dose screen, Ovarian Cancer; conditions: Homo sapiens; SK-OV-3, Ovarian Cancer; five-dose screen; read-out: GI50
786–0 = assay: NCI60 five-dose screen, Renal Cancer; conditions: Homo sapiens; 786–0, Renal Cancer; five-dose screen; read-out: GI50
A498 = assay: NCI60 five-dose screen, Renal Cancer; conditions: Homo sapiens; A498, Renal Cancer; five-dose screen; read-out: GI50
RXF 393 = assay: NCI60 five-dose screen, Renal Cancer; conditions: Homo sapiens, RXF 393, Renal Cancer
SN12C = assay: NCI60 five-dose screen, Renal Cancer; conditions: Homo sapiens, Renal Cancer, five-dose screen, read-out: GI50
UO-31 = assay: NCI60 five-dose screen, Renal Cancer; conditions: Homo sapiens; UO-31, Renal Cancer; five-dose screen; read-out: GI50
PC-3 = assay: NCI60 five-dose screen, Prostate Cancer; conditions: Homo sapiens; PC-3, Prostate Cancer; five-dose screen; read-out: GI50
MCF7 = assay: NCI60 five-dose screen, Breast Cancer; conditions: Homo sapiens; MCF7, Breast Cancer; five-dose screen; read-out: GI50
BT-549 = assay: NCI60 five-dose screen, Breast Cancer; conditions: Homo sapiens; BT-549, Breast Cancer; five-dose screen; read-out: GI50
MDA-MB-468 = assay: NCI60 five-dose screen, Breast Cancer; conditions: Homo sapiens; MDA-MB-468, Breast Cancer; five-dose screen; read-out: GI50
[1] = test system: 60 human tumor cell lines (NCI60); assay: NCI60 five-dose screen, whole panel and sub-panel means; conditions: Homo sapiens, read-out: GI50 Mean
[2] = 60 cell, mean over all 60 cell lines
[3] = mean over Non-small Cell Lung Cancer panel
[4] = mean over Prostate Cancer panel

CCC12C=CCN3CCC4(c5cc(NC(=O)CN6CCN(c7ccc(C(F)(F)F)cc7)CC6)c(OC)cc5N(C)C4C(O)(C(=O)OC)C1OC(C)=O)C32 (stereo not shown) [Compound 17]
GI50 (CCRF-CEM): 3.24 µM
GI50 (MOLT-4): 2090 nM
GI50 (RPMI-8226): 3090 nM
GI50 (SR): 2950 nM
GI50 (A549/ATCC): 4.07 µM
GI50 (NCI-H226): 6.46 µM
GI50 (NCI-H23): 10.7 µM
GI50 (NCI-H322M): 15.1 µM
GI50 (NCI-H522): 10.5 µM
GI50 (COLO 205): 3240 nM
GI50 (HCC-2998): 7.76 µM
GI50 (HCT-15): 3.89 µM
GI50 (KM12): 3.72 µM
GI50 (SW-620): 5.75 µM
GI50 (SF-295): 3.55 µM
GI50 (SNB-75): 1450 nM
GI50 (U251): 6.03 µM
GI50 (MALME-3M): 14.8 µM
GI50 (M14): 3.63 µM
GI50 (SK-MEL-2): 4.37 µM
GI50 (SK-MEL-28): 5.89 µM
GI50 (UACC-257): 5.5 µM
GI50 (OVCAR-3): 2.88 µM
GI50 (OVCAR-8): 8.51 µM
GI50 (SK-OV-3): 3.31 µM
GI50 (786–0): 6.31 µM
GI50 (A498): 10.7 µM
GI50 (RXF 393): 5.37 µM
GI50 (SN12C): 7.76 µM
GI50 (UO-31): 5.13 µM
GI50 (PC-3): 3.31 µM
GI50 (MCF7): 3.72 µM
GI50 (BT-549): 2340 nM
GI50 (MDA-MB-468): 2400 nM
GI50 [1, 2]: 5.53 µM
GI50 ([1]; mean over Breast Cancer panel): 6.11 µM
GI50 ([1]; mean over CNS Cancer panel): 4.01 µM
GI50 ([1]; mean over Colon Cancer panel): 4.31 µM
GI50 ([1]; mean over Leukemia panel): 2.75 µM
GI50 ([1]; mean over Melanoma panel): 5.89 µM
GI50 [1, 3]: 7.29 µM
GI50 ([1]; mean over Ovarian Cancer panel): 6.48 µM
GI50 [1, 4]: 4.88 µM
GI50 ([1]; mean over Renal Cancer panel): 6.01 µM

CCC12C=CCN3CCC4(c5cc(NC(=O)CN6CCN(C(c7ccc(F)cc7)c7ccc(F)cc7)CC6)c(OC)cc5N(C)C4C(O)(C(=O)OC)C1OC(C)=O)C32 (stereo not shown) [Compound 20]
GI50 (CCRF-CEM): 2.88 µM
GI50 (MOLT-4): 2140 nM
GI50 (RPMI-8226): 1910 nM
GI50 (SR): 2000 nM
GI50 (A549/ATCC): 4.37 µM
GI50 (NCI-H226): 6.31 µM
GI50 (NCI-H23): 6.76 µM
GI50 (NCI-H322M): 12 µM
GI50 (NCI-H522): 10.2 µM
GI50 (COLO 205): 2450 nM
GI50 (HCC-2998): 3.89 µM
GI50 (HCT-15): 3.55 µM
GI50 (KM12): 3.98 µM
GI50 (SW-620): 3.98 µM
GI50 (SF-295): 3.47 µM
GI50 (SNB-75): 1820 nM
GI50 (U251): 6.03 µM
GI50 (MALME-3M): 8.13 µM
GI50 (M14): 4.07 µM
GI50 (SK-MEL-2): 3.02 µM
GI50 (SK-MEL-28): 12.3 µM
GI50 (UACC-257): 5.25 µM
GI50 (OVCAR-3): 4.37 µM
GI50 (OVCAR-8): 7.59 µM
GI50 (SK-OV-3): 5.89 µM
GI50 (786–0): 7.76 µM
GI50 (A498): 5.62 µM
GI50 (RXF 393): 2.69 µM
GI50 (SN12C): 4.9 µM
GI50 (UO-31): 5.25 µM
GI50 (PC-3): 4.47 µM
GI50 (MCF7): 2.95 µM
GI50 (BT-549): 2570 nM
GI50 (MDA-MB-468): 3020 nM
GI50 [1, 2]: 6.27 µM
GI50 ([1]; mean over Breast Cancer panel): 4.52 µM
GI50 ([1]; mean over CNS Cancer panel): 4.4 µM
GI50 ([1]; mean over Colon Cancer panel): 3.4 µM
GI50 ([1]; mean over Leukemia panel): 2.38 µM
GI50 ([1]; mean over Melanoma panel): 5.6 µM
GI50 [1, 3]: 15.7 µM
GI50 ([1]; mean over Ovarian Cancer panel): 5.3 µM
GI50 [1, 4]: 5.39 µM
GI50 ([1]; mean over Renal Cancer panel): 5.23 µM
